Results on 12 compounds are retold here after patent US10577363B2, “Substituted piperidine compounds” (EPIZYME, INC., priority 2014, dated 2020).

This experiment concerns the target SMYD3 (Homo sapiens (Human), UniProt Q9H7B4). Briefly: SMYD3 biochemical assay (SPA, 3H-SAM methylation of MEKK2 protein substrate). Conditions: read-out: SMYD3 Biochem IC50 (μM)*. In outline: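 Native full-length human SMYD3 (E. coli-expressed, tags removed) was preincubated with compound for 30 min at room temperature in 25 mM Tris-Cl pH 8.0, 1 mM TCEP, 0.005% BSG, 0.005% Tween 20. Reaction was started with 3H-SAM plus GST-MEKK2, quenched with 100 uM unlabeled SAM, and read by SPA scintillation counting.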

For `COCCNc1ccc(S(=O)(=O)N2CC[C@H](NC(=O)c3cc(C4CC4)on3)C[C@H]2C)cn1` [compound 456, 5-cyclopropyl-N-((2R,4S)-1-((6-((2-methoxyethyl)amino)pyridin-3-yl)sulfonyl)-2-methylpiperidin-4-yl)isoxazole-3-carboxamide], the IC50 was over 10 µM.
The same measure for `C[C@H]1C[C@H](NC(=O)c2cc(C3CC3)on2)CCN1S(=O)(=O)c1ccc(N(C)CCN)nc1` [compound 462, N-((2S,4R)-1-((6-((2-aminoethyl)(methyl)amino)pyridin-3-yl)sulfonyl)-2-methylpiperidin-4-yl)-5-cyclopropylisoxazole-3-carboxamide]: 0.305 µM; for `C[C@H]1C[C@@H](NC(=O)c2cc(C3CC3)on2)CCN1S(=O)(=O)c1ccc(Cl)cn1` [compound 466, N-((2S,4S)-1-((5-chloropyridin-2-yl)sulfonyl)-2-methylpiperidin-4-yl)-5-cyclopropylisoxazole-3-carboxamide]: 0.121 µM; for `COC(=O)C1CN(C(=O)[C@H]2CC[C@H](N)CC2)CC(C)C1NC(=O)c1cc(C2CC2)on1` (stereo partly drawn) [compound 468, methyl 1-((1r,4r)-4-aminocyclohexane-1-carbonyl)-4-(5-cyclopropylisoxazole-3-carboxamido)-5-methylpiperidine-3-carboxylate]: 1.22 µM.
As for `N[C@H]1CC[C@H](C(=O)N2CCC(NC(=O)c3cc(C4CC4)on3)C(c3ccccc3)C2)CC1` (stereo partly drawn) [compound 469, N-(1-((1r,4r)-4-aminocyclohexane-1-carbonyl)-3-phenylpiperidin-4-yl)-5-cyclopropylisoxazole-3-carboxamide], the figure is 6.28 µM; as for `NCCCS(=O)(=O)N1CCC(NC(=O)c2cc(C3CC3)on2)C(c2ccccc2)C1` (stereo not drawn) [compound 470, N-(1-((3-aminopropyl)sulfonyl)-3-phenylpiperidin-4-yl)-5-cyclopropylisoxazole-3-carboxamide], 2.76 µM; as for `COC(=O)C1CN(C(=O)CCCN)CC(C)C1NC(=O)c1cc(C2CC2)on1` (stereo not drawn) [compound 471, methyl 1-(4-aminobutanoyl)-4-(5-cyclopropylisoxazole-3-carboxamido)-5-methylpiperidine-3-carboxylate], 5.76 µM.
`CC(C)CN(C)c1ncccc1S(=O)(=O)N1C2CCCC1CC(NC(=O)c1cc(C3CC3)on1)C2` (stereo not drawn) [compound 472, 5-cyclopropyl-N-(9-((2-(isobutyl(methyl)amino)pyridin-3-yl)sulfonyl)-9-azabicyclo[3.3.1]nonan-3-yl)isoxazole-3-carboxamide]: the IC50 is over 10 µM.
The same measure for `CC(C)CNc1ncccc1S(=O)(=O)N1C2CCCC1CC(NC(=O)c1cc(C3CC3)on1)C2` (stereo not drawn) [compound 473, 5-cyclopropyl-N-(9-((2-(isobutylamino)pyridin-3-yl)sulfonyl)-9-azabicyclo[3.3.1]nonan-3-yl)isoxazole-3-carboxamide]: 5.97 µM.
`CC(C)CNc1ncccc1S(=O)(=O)N1CC[C@H](NC(=O)c2cc(C3CC3)on2)C[C@@H]1C` [compound 474, 5-cyclopropyl-N-((2S,4S)-1-((2-(isobutylamino)pyridin-3-yl)sulfonyl)-2-methylpiperidin-4-yl)isoxazole-3-carboxamide]: the IC50 is 2.74 µM.
As for `NCCNc1ncccc1S(=O)(=O)N1C2CCCC1CC(NC(=O)c1cc(C3CC3)on1)C2` (stereo not drawn) [compound 476, N-(9-((2-((2-aminoethyl)amino)pyridin-3-yl)sulfonyl)-9-azabicyclo[3.3.1]nonan-3-yl)-5-cyclopropylisoxazole-3-carboxamide], the figure is 1.31 µM; as for `N[C@H]1CC[C@@H](C(=O)N2[C@@H]3CC[C@H]2C[C@H](NC(=O)c2cc(C4CC4)on2)C3)CC1` [compound 486, N-((1R,3S,5S)-8-((1s,4S)-4-aminocyclohexane-1-carbonyl)-8-azabicyclo[3.2.1]octan-3-yl)-5-cyclopropylisoxazole-3-carboxamide], over 10 µM.
